Here are results for 1 compound from US20240418723A1, “SEQUENTIAL TREATMENTS AND BIOMARKERS TO REVERSE RESISTANCE TO KINASE INHIBITORS” (Queen Mary University of London, priority 2021, published 2024).

Bounds are passed on as bounds.

One data set concerns P31/Fuj AML cells. Description: Sequential treatment of P31/Fuj cells (ATRA or LSD1 inhibitor 5 days, then MEKi 3 days; also co-treatment and reverse treatment): cell viability, cell number, apoptosis, CDI. In kind it is cell-based. On the procedure: (§1) The Bliss independence model was used to derive coefficients of drug interaction (CDI) values, where CDI <1 indicates significant priming by the […] (synergistic effect).
(§2) For the proliferation/viability assays, cells were seeded in T75 flasks (0.5×10^6 cells/mL of RPMI/FBS medium) and exposed for 5 days to either vehicle or epigenetic modifier. Unless otherwise specified, the final concentration for GSK2879552 (LSD1i), […] (EZH2i), pinometostat (DOT1Li) and ATRA was 1 μM while for decitabine (DNMTAi) and vorinostat (HDACi) was 100 nM; all epigenetic inhibitors were diluted in DMSO, while ATRA was diluted in Et-OH. Vehicle concentration was kept at 0.1%. […] The final concentration of DMSO was kept at 0.1%. Finally, cells were transferred to 96-well plates (100 μL per well in 3 technical replicates per condition) and cell viability and proliferation were assessed using Guava and ApoTox-Glo Triplex analyses, as indicated below.
For Guava analysis, cells were stained with Guava ViaCount reagent (Luminex #4000-0040) in 96-well plates, by mixing 150 μL of cell suspension with 75 μL of reagent, and left to incubate for a minimum of 10 minutes in the dark, after which they were processed through a Guava easyCyte flow cytometer (Luminex #0500-5005). Flow cytometry data were analysed using CytoSoft (v2.5.7). Viability and cell number values were expressed relative to vehicle control.
For ApoTox-Glo analysis, cell suspensions were transferred to opaque 96-well plates (100 μL per well) and viability and apoptosis measured using ApoTox-Glo Triplex Assay (Promega #G6320). 20 μL of Viability/Cytotoxicity reagent (containing GF-AFC and bis-AAF-R110 substrates) were added to each well, then incubated at 37° C. for 1 hour. Live cell and cytotoxicity outputs were measured on FLUOstar Omega microplate reader (BMG Labtech). To obtain the live cell output, fluorescence was measured at 355EX/520EM (wavelengths in nm); for the cytotoxicity output, fluorescence was measured at 485EX/520EM. Following this, 100 μL of Caspase-Glo 3/7 reagent were added to each well and incubated at 25° C. for 1 hour. Luminescence was then measured on FLUOstar Omega microplate reader (BMG Labtech). The fluorescence and luminescence signals thus obtained were corrected to the respective background controls (culture medium with no cells). Relative cell number values were obtained by normalising live cell outputs to vehicle control. Apoptosis values were obtained by dividing luminescence outputs to the respective live cell outputs, then normalising to vehicle control.
The extent of drug interaction was calculated in Microsoft Excel 2016 using the CDI formula AB/(A*B), where AB is the normalized reduction in cell viability of the sequential treatment, and A and B are the effects of single treatments. Statistical significance of CDI values for each AML sample was determined using a one sample t-test (base R package) with the null hypothesis being that the mean Log2(CDI) equals 0.

The subject of the next data set is AML cell lines. Description: Small-scale drug screens: epigenetic antagonist 5 days followed by kinase inhibitor 3 days, cell viability/proliferation, CDI. In kind it is cell-based. How it is done:
as §1, §2
For Guava analysis, cells were stained with Guava ViaCount reagent (Luminex #4000-0040) in 96-well plates, by mixing 150 μL of cell suspension with 75 μL of reagent, and left to incubate for a minimum of 10 minutes in the dark, after which they were processed through a Guava easyCyte flow cytometer (Luminex #0500-5005). Flow cytometry data were analysed using CytoSoft (v2.5.7). […]

The conditions of data set [1]: results of clinical trials; unselected AML patient populations; cited from earlier work.
The next data set concerns acute myeloid leukemia. The conditions noted are these: Smitheman et al. (2019); cited from earlier work.
The next data set concerns P31/Fuj cells. Nature of the data set: Phosphoproteomics (LC-MS/MS) and kinase network analysis of treated P31/Fuj cells.
The mark [2] stands for this setting: LSD1i and MEKi co-treatment 3 days, P31/Fuj (FIG. 10B).
[3] abbreviates: LSD1i by itself, 2.5 z-score threshold (FIG. 6C).
Setting [4] is: LSD1i relative to control (FIGS. 6 C, D, 18B).
Setting [5] is: LSD1i treatment, P31/Fuj (FIG. 19A).

Take `O=C(O)c1ccc(CN2CCC(CN[C@@H]3C[C@H]3c3ccccc3)CC2)cc1` [GSK2879552]: the “Log2 CDI, reverse treatment” value with P31/Fuj AML cells (3-day pre-treatment with MEKi followed by 5-day LSD1i, additive to strongly antagonistic, P31/Fuj) is more than 0. Besides, in the data set with P31/Fuj AML cells (LSD1i 5 days then MEKi 3 days, all concentrations above 10 nM, strongly synergistic, P31/Fuj (FIG. 10A)), the “Log2 CDI based on cell number and apoptosis, 5+3 days sequential treatment” value is reported as “below 0”. Also, the “sensitisation to the effects of MEKi (suppressing proliferation and inducing apoptosis)” value in the data set on P31/Fuj AML cells (LSD1i 5 days then MEKi 3 days, dose-dependent manner, P31/Fuj cells (FIG. 2E)) is reported as “sensitised P31/Fuj cells to the effects of MEKi”. Besides, in the data set with P31/Fuj AML cells (setting [2]), the “CDI for apoptosis, 3-day co-treatment” value is on record as “mildly synergistic” and the “CDI for proliferation, 3-day co-treatment” value was “near additive”. Also, the “number of AML cell lines sensitised to midostaurin, pictilisib or trametinib” value in the data set on AML cell lines (LSD1i pre-treatment, out of the 12 AML cell lines tested (FIG. 2D)) is 9. Moreover, in the data set on AML cell lines (epigenetic antagonist 5 days, then MEK, mTOR or PKC inhibitor 3 days, cell viability, Bliss independence, CDI <1 = synergistic (FIG. 2C)), the “-Log2 CDI (coefficient of drug interaction), sensitisation to kinase inhibitor treatment” value is given as “one of the most potent sensitisers to kinase inhibitor treatment”. Also, the “clinical tolerability as single agent” value in data set [1] is given as “has side effects”. Besides, the “differentiation and cytotoxic response in combination with all-trans retinoic acid (ATRA)” value in the data set on acute myeloid leukemia is “enhances differentiation and promotes cytotoxic response”. For the same compound, in the data set with P31/Fuj cells (0.5 μM LSD1i 5 days, then 1 μM kinase inhibitor 1 h, P31/Fuj (FIG. 6B)), the “phosphorylation sites affected by kinase inhibitors after LSD1i pre-treatment versus vehicle” value is given as “fewer phosphorylation sites”. Further, the “c-Myc phosphorylation at S62” value with P31/Fuj cells (LSD1i 5 days, P31/Fuj (FIG. 6F)) is “reduced”. For the same compound, the “kinase activities (node centrality)” value in the data set with P31/Fuj cells (LSD1i by itself relative to control (FIG. 6D)) is reported as “decreased more kinase activities than it increased”. Further, in the data set with P31/Fuj cells (setting [3]), the “number of network axes with decreased enrichment” value came to 18 and the “number of network axes with increased enrichment” value was determined as 6. Further, in the data set with P31/Fuj cells (LSD1i pre-treatment (FIG. 6H, 19 D, E)), the “effect of PI3K, AKT, MEK and ERK inhibitors in increasing phosphorylation of epigenetic regulators and histones, CDKs, cyclins and DNA repair proteins” value was “blunted”. Also, in the data set with P31/Fuj cells (setting [4]), the “circuitries containing AKT and MTOR” value is on record as “decrease”; the “circuitries with PKCI and MEK1 (MAP2K1)” value is reported as “increased”. For the same compound, in the data set with P31/Fuj cells (setting [5]), the “AHNAK pS5110 phosphorylation” value is listed as “increased”; the “PI3K/AKT pathway markers GSK3B pS13 and RPS6 p236, and MAPK pathway marker MAPK3 (ERK1) pT202” value is listed as “decreased”. Besides, the “kinase inhibitor-induced increase in phosphorylation of LSD1/KDM1A at T95 and S93” value in the data set with P31/Fuj cells (control cells versus LSD1i pre-treated cells (FIG. 6G, 19A)) was “not in cells pre-treated with LSD1i”.
